Values quoted from earlier work in patent publication US7867716B2 (priority 2004, dated 2011).

Experiments:
[1] = molecular target: WT-αHL (Staphylococcus aureus, UniProt P09616)
[2] = molecular target: glucoamylase (Aspergillus niger, UniProt P69328)
glucoamylase, sequence (P69328 25-640 limits assumed): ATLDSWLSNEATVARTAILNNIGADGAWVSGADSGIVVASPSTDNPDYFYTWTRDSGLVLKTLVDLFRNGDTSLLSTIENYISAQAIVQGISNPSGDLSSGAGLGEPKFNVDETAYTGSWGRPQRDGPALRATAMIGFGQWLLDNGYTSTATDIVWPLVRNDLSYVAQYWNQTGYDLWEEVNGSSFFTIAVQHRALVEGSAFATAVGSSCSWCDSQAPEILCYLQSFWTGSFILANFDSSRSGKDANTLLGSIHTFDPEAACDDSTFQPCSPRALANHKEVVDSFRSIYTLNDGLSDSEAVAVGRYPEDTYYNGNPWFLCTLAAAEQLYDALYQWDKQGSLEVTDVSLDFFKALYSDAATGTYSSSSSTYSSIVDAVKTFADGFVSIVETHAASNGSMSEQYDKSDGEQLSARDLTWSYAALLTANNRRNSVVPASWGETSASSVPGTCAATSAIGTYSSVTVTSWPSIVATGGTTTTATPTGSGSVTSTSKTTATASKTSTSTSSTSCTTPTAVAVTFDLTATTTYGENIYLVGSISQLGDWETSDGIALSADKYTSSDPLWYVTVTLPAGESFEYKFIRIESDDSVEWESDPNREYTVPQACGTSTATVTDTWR

WT-αHL, sequence (P09616 27-319 limits assumed): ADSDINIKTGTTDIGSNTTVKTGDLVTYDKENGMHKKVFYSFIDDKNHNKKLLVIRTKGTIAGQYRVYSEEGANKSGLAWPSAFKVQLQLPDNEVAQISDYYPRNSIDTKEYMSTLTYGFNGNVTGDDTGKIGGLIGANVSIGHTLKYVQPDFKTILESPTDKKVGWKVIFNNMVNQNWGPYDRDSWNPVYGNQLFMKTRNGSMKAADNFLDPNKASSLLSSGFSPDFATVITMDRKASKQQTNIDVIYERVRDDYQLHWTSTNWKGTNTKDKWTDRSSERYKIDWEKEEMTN

β-cyclodextrin [βCD]
Kf (trans) [1]: 300 M⁻¹
formation constant Kf for WT-αHL with βCD [1]: 290 M⁻¹
ΔS° [2]: −90 J mol^−1 K^−1
